Test results taken from the supplement of paper PMC10307832.

Legend:
Test in all cases: relative viability (nuclei count vs DMSO), 5 days (fraction); higher = more cells survive
[1] = compound: NC(=O)[C@@H](CCC(F)(F)F)N(Cc1ccc(-c2ncon2)cc1F)S(=O)(=O)c1ccc(Cl)cc1 [Avagacestat] + CC(=O)Nc1cccc(-n2c(=O)n(C3CC3)c(=O)c3c(Nc4ccc(I)cc4F)n(C)c(=O)c(C)c32)c1 [Trametinib] (partner 0.02 µM)
Procedure, shortened: (§1)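 Lung cancer cell lines were pin-tool dosed in 1536-well plates on the day after seeding, with either a lone drug or a fixed anchor-drug dose plus five library-drug doses (not always all listed) in √10 steps. Nuclei were counted on 4× images after 5 days. Relative viability is the ratio of treated-well to vehicle-well nuclei counts, with each value a median of duplicate plates.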

[2] = compound: NC(=O)[C@@H](CCC(F)(F)F)N(Cc1ccc(-c2ncon2)cc1F)S(=O)(=O)c1ccc(Cl)cc1 [Avagacestat] + O=C(c1cc(Cc2n[nH]c(=O)c3ccccc23)ccc1F)N1CCN(C(=O)C2CC2)CC1 [Olaparib] (partner 8 µM)
Procedure, shortened: as §1

[3] = compound: NC(=O)[C@@H](CCC(F)(F)F)N(Cc1ccc(-c2ncon2)cc1F)S(=O)(=O)c1ccc(Cl)cc1 [Avagacestat] + CS(=O)(=O)CCNCc1ccc(-c2ccc3ncnc(Nc4ccc(OCc5cccc(F)c5)c(Cl)c4)c3c2)o1 [Lapatinib] (partner 2 µM)
Procedure, shortened: as §1

[4] = compound: NC(=O)[C@@H](CCC(F)(F)F)N(Cc1ccc(-c2ncon2)cc1F)S(=O)(=O)c1ccc(Cl)cc1 [Avagacestat] + N=C(N)NC(=N)NCCc1ccccc1 [Phenformin] (partner 250 µM)
Procedure, shortened: as §1

Cell Line	relative viability ([1]; first compound 0.08 µM)	relative viability ([1]; first compound 0.253 µM)	relative viability ([1]; first compound 0.8 µM)	relative viability ([1]; first compound 2.53 µM)	relative viability ([1]; first compound 8 µM)	relative viability ([2]; first compound 0.08 µM)	relative viability ([2]; first compound 0.253 µM)	relative viability ([2]; first compound 0.8 µM)	relative viability ([2]; first compound 2.53 µM)	relative viability ([2]; first compound 8 µM)	relative viability ([3]; first compound 0.08 µM)	relative viability ([3]; first compound 0.253 µM)	relative viability ([3]; first compound 0.8 µM)	relative viability ([3]; first compound 2.53 µM)	relative viability ([3]; first compound 8 µM)	relative viability ([4]; first compound 0.08 µM)	relative viability ([4]; first compound 0.253 µM)	relative viability ([4]; first compound 0.8 µM)	relative viability ([4]; first compound 2.53 µM)	relative viability ([4]; first compound 8 µM)
NCI-H1944	0.426	0.436	0.373	0.394	0.382	0.492	0.448	0.46	0.4	0.421	0.714	0.937	0.77	0.669	0.756	0.231	0.236	0.226	0.18	0.204
HARA	0.704	0.764	0.757	0.536	0.647	0.852	0.958	0.869	0.501	0.834	0.628	0.692	0.526	0.624	0.63	0.486	0.516	0.42	0.486	0.42
NCI-H1650	0.696	0.614	0.73	0.678	0.588	0.961	0.893	0.86	0.917	0.936	1.02	0.825	0.695	0.884	0.853	0.446	0.416	0.484	0.455	0.412
NCI-H2228	0.591	0.535	0.753	0.59	0.354	0.642	0.862	0.8	0.658	0.59	1.33	0.875	1.52	1.13	0.718	0.417	0.263	0.271	0.296	0.243
NCI-H596	0.741	0.783	0.794	0.817	0.7	0.741	0.62	0.804	0.613	0.573	1.09	1.03	1.15	1.11	0.944	0.78	0.717	0.867	0.699	0.653
NCI-H1395	1.02	1.05	0.926	0.803	0.949	0.463	0.475	0.516	0.359	0.435	0.981	1.08	0.94	1.17	0.79	0.424	0.456	0.432	0.45	0.457
NCI-H2170	1	1.17	1	0.867	0.881	0.78	0.722	0.612	0.64	0.582	0.297	0.265	0.291	0.275	0.296	0.418	0.411	0.377	0.406	0.382
NCI-H2023	0.681	0.59	0.569	0.522	0.449	0.751	0.52	0.479	0.493	0.475	0.979	0.89	0.822	0.617	0.7	0.474	0.476	0.453	0.35	0.368
